Structures can show the parent of a compound that is named as a salt.
Tested on: KG-1 cell line
Assay: Effect of test compounds on KG-1 cell proliferation (Cell Titer-Glo viability, 72 hours)
Type: cell-based
Details: Homo sapiens, read-out: FCA Prolif Cell TiterGlo KG-1 72 h (IC50)
Description: The anti-proliferative activity of the test compound was evaluated on KG-1 cell line (American Type Culture Collection [ATCC]: catalogue number ATCC® CCL-246™) at 72 hours post-treatment. The seeding density for KG-1 was optimized to ensure assay linearity in 384-well plates.
Increasing concentrations of the test compound (0.5 nM to 10 μM) were spotted in a 10-point serial dilution fashion (3-fold dilution) in duplicate via an acoustic dispenser (EDC ATS-100) into an empty 384-well plate. The dimethyl sulfoxide (DMSO) concentration was kept constant for a final assay concentration of 0.1% DMSO. Prior to testing, KG-1 cells were grown in RPMI-1640 (Roswell Park Memorial Institute—1640) medium with 10% FBS (fetal bovine serum: HyClone) and expanded in culture flasks to provide sufficient amounts of starting material. Cells were then diluted to 5000 cells per well, in a 50 μL volume and added directly to the compound-spotted 384-well plates. Cells were allowed to grow for 72 hours in 5% CO2 at 37° C. At the time when exposure of cells to compound began (t0), initial viable cell number was assessed via Cell Titer-Glo® Luminescent Cell Viability Assay at a 1 vol:2 vol ratio according to manufacturer's instructions (Promega Corporation, Madison, Wis.) by quantifying the level of luminescence generated by adenosine-5′-triphosphate (ATP) present in viable cells. After 72 hours, cell viability of t-treated cells was assessed via Cell Titer-Glo® and read for luminescence.

SMILES: COc1ccc(C(F)(F)C(=O)NCc2ccc3c(c2)CN(C2CCC(=O)NC2=O)C3=O)cc1 (centres unmarked) [Example 3]
- IC50: 100 to 10000 nM

SMILES: O=C1CCC(N2Cc3cc(CNC(=O)C(F)(F)c4ccc(F)cc4)ccc3C2=O)C(=O)N1 (centres unmarked) [Example 5]
- IC50: 10 to 50 nM

SMILES: O=C1CCC(N2Cc3cc(CNC(=O)C(F)(F)c4ccccc4Cl)ccc3C2=O)C(=O)N1 (centres unmarked) [Example 8]
- IC50: 100 to 10000 nM

SMILES: O=C1CCC(N2Cc3cc(CNC(=O)C(F)(F)c4c(F)cccc4F)ccc3C2=O)C(=O)N1 (centres unmarked) [Example 14]
- IC50: 100 to 10000 nM

SMILES: Cc1ccccc1C(F)(F)C(=O)NCc1ccc2c(c1)CN(C1CCC(=O)NC1=O)C2=O (centres unmarked) [Example 15, N-((2-(2,6-dioxopiperidin-3-yl)-1-oxoisoindolin-5-yl)methyl)-2,2-difluoro-2-(o-tolyl)acetamide]
- IC50: 10 to 50 nM

SMILES: CC(C)Oc1ccc(C(F)(F)C(=O)NCc2ccc3c(c2)CN(C2CCC(=O)NC2=O)C3=O)cc1 (centres unmarked) [Example 22]
- IC50: 10 to 50 nM

SMILES: O=C1CCC(N2Cc3cc(CNC(=O)C(F)(F)c4ccc(F)c(F)c4)ccc3C2=O)C(=O)N1 (centres unmarked) [Example 23]
- IC50: 100 to 10000 nM

SMILES: O=C1CCC(N2Cc3cc(CNC(=O)C(F)(F)c4cccc(F)c4)ccc3C2=O)C(=O)N1 (centres unmarked) [Example 24]
- IC50: 100 to 10000 nM

SMILES: O=C1CCC(N2Cc3cc(CNC(=O)C(F)(F)C4(O)CCCC4)ccc3C2=O)C(=O)N1 (centres unmarked) [Example 66]
- IC50: 100 to 10000 nM

SMILES: CC(C)(F)c1ccc(C(F)(F)C(=O)NCc2ccc3c(c2)CN(C2CCC(=O)NC2=O)C3=O)cc1 (centres unmarked) [Example 92]
- IC50: 50 to 100 nM

SMILES: CC(C)(C)c1ccc(C(F)(F)C(=O)NCc2ccc3c(c2)CN(C2CCC(=O)NC2=O)C3=O)nc1 (centres unmarked) [Example 96, hydrochloride]
- IC50: 10 to 50 nM

SMILES: O=C1CCC(N2Cc3cc(CNC(=O)C(F)(F)c4ccc(C5CC5)cn4)ccc3C2=O)C(=O)N1 (centres unmarked) [Example 97]
- IC50: 100 to 10000 nM

SMILES: O=C1CCC(N2Cc3cc(CNC(=O)C(F)(F)c4ccc(F)cc4OC(F)(F)F)ccc3C2=O)C(=O)N1 (centres unmarked) [Example 100]
- IC50: 50 to 100 nM

SMILES: CS(=O)(=O)c1cccc(C(F)(F)C(=O)NCc2ccc3c(c2)CN(C2CCC(=O)NC2=O)C3=O)c1 (centres unmarked) [Example 103]
- IC50: 100 to 10000 nM

SMILES: Nc1ncc(C(F)(F)C(=O)NCc2ccc3c(c2)CN(C2CCC(=O)NC2=O)C3=O)cn1 (centres unmarked) [Example 104]
- IC50: 100 to 10000 nM

SMILES: Cn1nc(C(F)(F)C(=O)NCc2ccc3c(c2)CN(C2CCC(=O)NC2=O)C3=O)ccc1=O (centres unmarked) [Example 107]
- IC50: 100 to 10000 nM

SMILES: CN1CCN(c2cccc(C(F)(F)C(=O)NCc3ccc4c(c3)CN(C3CCC(=O)NC3=O)C4=O)c2)CC1 (centres unmarked) [Example 114, hydrochloride]
- IC50: 100 to 10000 nM

— patent publication US9968596B2 (Celgene Corporation, priority 2014, dated 2018)
